According to ChEMBL document CHEMBL2074484, “Molecular cloning and characterization of two novel human renal organic anion transporters (hOAT1 and hOAT3)” (Biochem Biophys Res Commun, 1999):

Legend:
Assay type in all cases: functional, cell-based
Conditions in all cases: oocyte
[1] = biological target: T1, Organic anion transporter 3 (Homo sapiens, UniProt Q8TCC7); assay: (§1) TP_TRANSPORTER: uptake in Xenopus laevis oocytes
T1 sequence (Q8TCC7 whole entry): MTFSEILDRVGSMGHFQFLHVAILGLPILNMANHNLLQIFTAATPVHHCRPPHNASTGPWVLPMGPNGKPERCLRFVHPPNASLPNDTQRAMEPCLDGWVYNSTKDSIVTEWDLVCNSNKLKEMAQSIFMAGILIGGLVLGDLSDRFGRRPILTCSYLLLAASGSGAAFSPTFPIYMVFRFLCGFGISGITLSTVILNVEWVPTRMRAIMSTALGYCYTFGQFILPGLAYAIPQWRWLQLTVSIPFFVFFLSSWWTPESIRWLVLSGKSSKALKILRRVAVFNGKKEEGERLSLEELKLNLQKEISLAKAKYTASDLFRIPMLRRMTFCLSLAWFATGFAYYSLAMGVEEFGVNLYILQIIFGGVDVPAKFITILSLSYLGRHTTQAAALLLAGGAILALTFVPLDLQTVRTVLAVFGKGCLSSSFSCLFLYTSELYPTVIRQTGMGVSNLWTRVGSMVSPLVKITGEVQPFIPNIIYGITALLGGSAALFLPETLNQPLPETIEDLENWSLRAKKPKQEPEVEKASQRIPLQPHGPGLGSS

[2] = biological target: T2, Solute carrier family 22 member 6 (Homo sapiens, UniProt Q4U2R8); assay: TP_TRANSPORTER: inhibition of PAH uptake (PAH: 1 uM, Hydrochlorothiazide: 100 uM) in Xenopus laevis oocytes
T2 sequence (Q4U2R8 whole entry): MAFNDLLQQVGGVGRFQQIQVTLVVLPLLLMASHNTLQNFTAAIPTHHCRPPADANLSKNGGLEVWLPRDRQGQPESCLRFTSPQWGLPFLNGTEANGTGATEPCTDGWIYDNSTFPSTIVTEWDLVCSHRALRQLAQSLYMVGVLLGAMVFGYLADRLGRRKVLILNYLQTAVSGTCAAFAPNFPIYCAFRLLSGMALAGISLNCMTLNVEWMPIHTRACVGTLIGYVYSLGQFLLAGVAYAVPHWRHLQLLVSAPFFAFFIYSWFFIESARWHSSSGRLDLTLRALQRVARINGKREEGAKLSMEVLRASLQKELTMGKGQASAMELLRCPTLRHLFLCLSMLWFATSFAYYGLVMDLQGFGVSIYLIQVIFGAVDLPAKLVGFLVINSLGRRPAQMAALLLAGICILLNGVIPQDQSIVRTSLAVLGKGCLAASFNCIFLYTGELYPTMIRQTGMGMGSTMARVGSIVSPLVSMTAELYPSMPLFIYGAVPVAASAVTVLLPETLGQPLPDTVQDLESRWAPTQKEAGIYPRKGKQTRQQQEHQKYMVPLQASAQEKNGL

[3] = biological target: T2, Solute carrier family 22 member 6; assay: TP_TRANSPORTER: inhibition of PAH uptake (PAH: 1 uM, Bumetamide: 100 uM) in Xenopus laevis oocytes
[4] = biological target: T2, Solute carrier family 22 member 6; assay: TP_TRANSPORTER: inhibition of PAH uptake (PAH: 1 uM, Urate: 100 uM) in Xenopus laevis oocytes
[5] = biological target: T2, Solute carrier family 22 member 6; assay: as §1
[6] = biological target: T2, Solute carrier family 22 member 6; assay: TP_TRANSPORTER: inhibition of PAH uptake (PAH: 1 uM, Losartan: 100 uM) in Xenopus laevis oocytes

In the case of `Nc1ccc(C(=O)NCC(=O)O)cc1` [AMINOHIPPURIC ACID], the Activity [1] is reported as “is not a substrate [-]”.

With `CC[N+](CC)(CC)CC` [TETRYLAMMONIUM] the Activity [1] was “is not a substrate [-]”.

With `NS(=O)(=O)c1cc2c(cc1Cl)NCNS2(=O)=O` [HYDROCHLOROTHIAZIDE] the Activity [2] was “is not an inhibitor [-]”.

`CCCCNc1cc(C(=O)O)cc(S(N)(=O)=O)c1Oc1ccccc1` [BUMETANIDE] was tested, and the Activity [3] was “inhibitor [(at a rough estimate) 45 % of control]”.

For `O=C([O-])C(=O)[O-].[Na+].[Na+]` [SODIUM OXALATE], the Activity [1] was “is not a substrate [-]”.

`O=c1[nH]c(=O)c2[nH]c(=O)[nH]c2[nH]1` [URIC ACID] was tested, and the Activity [4] was “is not an inhibitor [-]”, the Activity [5] was “is not a substrate [-]” and the Activity [1] was “is not a substrate [-]”.

`CCCCc1nc(Cl)c(CO)n1Cc1ccc(-c2ccccc2-c2nn[nH]n2)cc1` [LOSARTAN] was tested, and the Activity [6] was “inhibitor [(at a rough estimate) 25 % of control]”.
